Each structure is given as a SMILES string. Like-named read-outs stand apart in the source and are kept apart here.

Results on three compounds are retold here after patent publication US11987555B2, “Malassezin and analogs thereof as skin brightening agents” (Versicolor Technologies, LLC, priority 2016, dated 2024).

The subject of data set [1] is MeWo cells. Kind of data set: Cell morphology after treatment (micrographs). Type of data set: cell-based. To be noted: 100 μM of test compound, 6 hours. The procedure: FIGS. 5A-5K are micrographs showing MeWo cell morphology after 6 hours of treatment with various concentrations of CV-8684, CV-8685, CV-8688, DMSO, and staurosporine.
(§1) Typical cell morphology after various treatments is shown in FIGS. 5A-5K, 6A-6K, 7A-7K, 8A-8K, 9A-9K, 10A-10K, 11A-11K, and 12A-12K.

Data set [2] relates to WM115 cells. Kind of data set: Cell morphology after treatment (micrographs). Type of data set: cell-based. The conditions noted are these: 100 μM of test compound, 6 hours. The procedure:
FIGS. 9A-9K are micrographs showing WM115 cell morphology after 6 hours of treatment with various concentrations of CV-8684, CV-8685, CV-8688, DMSO, and staurosporine.
as §1

In data set [3] the test system is MeWo cells. Nature of the data set: Additional annexin V assay (3 doses, 6-72 hours). Type of data set: cell-based. To be noted: 6 hours, doses 100, 10, 1 μM. The procedure:
(§2) To further investigate the impact of test compounds on apoptosis, multiple readouts, covering different stages of apoptosis, were carried out on both MeWo and WM115 cells. Both cell types were treated with test compounds at 3 doses (100 μM, 10 μM, and 1 μM). Staurosporine was used as a positive control. […] The test compounds evaluated were CV-8684, CV-8685, and CV-8688.
(§3) Cell seeding was performed as discussed above with the following exceptions: the final cell density was 4,000 cells/well for 6-hour and 24-hour detections, whereas 2,000 cells/well were used for 48-hour and 72-hour detections. For each time point, 384-well clear bottom plates (Corning 3712) and solid white bottom plates (Corning 3570) were prepared. The plates were incubated as discussed above.
(§4) For preparation of the compound source plate, each test compound was dissolved in DMSO to 10 mM stock. Two additional concentrations were generations by 10-fold dilution to 1 mM and 0.1 mM. Staurosporine was used as positive control and 1% DMSO was employed as vehicle (negative) control. The compound source plate was spun at room temperature at 1,000 RPM for 1 minute and agitated using a plate shaker for 2 minutes.
(§5) 400 nL of test compound was transferred from the compound source plate to 384-well culture plates using Echo550 liquid handler. After 6, 24, 48, and 72 hours, the plates were removed from the incubator for detections.
(§6) Culture media was removed and cells were washed twice with PBS. 20 μL of pre-mixed annexin V-FITC working solution was added to each well. The cells were incubated at room temperature for 20 minutes. Plates were read using Acumen eX3 to count the number of FITC-positive cells.

The test system of data set [4] is WM115 cells. Nature of the data set: Additional annexin V assay (3 doses, 6-72 hours). Type of data set: cell-based. To be noted: 6 hours, doses 100, 10, 1 μM. The procedure:
as §2, §3, §4, §5, §6

The test system of data set [5] is MeWo cells. Kind of data set: CellTiter-Glo cell viability assay. Type of data set: cell-based. The conditions noted are these: doses 100, 10, 1 μM, 6-72 hours. The procedure:
(§7) CellTiter-Glo® 2.0 assay was purchased from Promega.
(§8) CellTiter-Glo® reagents were thawed and equilibrated to room temperature before the experiment. 40 μL of CellTiter-Glo® reagent was then added to each well for detection (at 1:1 ratio to culture medium). The plates were then incubated at room temperature for 30 minutes and read using EnSpire (PerkinElmer) plate reader. The remaining activity was calculated according to the following formula: Remaining Activity (%)=100%×(Lumsample−Lumbkg)/(Lumvehicle−Lumbkg).

The subject of data set [6] is WM115 cells. Nature of the data set: CellTiter-Glo cell viability assay. Type of data set: cell-based. To be noted: doses 100, 10, 1 μM, 6-72 hours. The procedure:
as §7, §8
(Cellular ATP, detected with luciferase, serves as a proxy for viable cell number.)

Data set [7] deals with MelanoDerm™ Skin Model. Nature of the data set: MelanoDerm assay, visual pigmentation. Type of data set: cell-based, human. To be noted: day 7; 200 μM and 50 μM, topical every 48 hours. The procedure:
FIGS. 16A-16K are photographs of MelanoDerm™ matrices at either day 0 or day 7 after exposure to no treatment (FIG. 16A), sterile deionized water (FIG. 16B), 1% kojic acid (FIG. 16C), 0.2% DMSO (FIG. 16D), 0.05% DMSO (FIG. 16E), 200 μM CV-8684 (FIG. 16F), 50 μM CV-8684 (FIG. 16G), 200 μM CV-8686 (FIG. 16H), 50 μM CV-8686 (FIG. 16I), 200 μM CV-8688 (FIG. 16J), and 50 μM CV-8688 (FIG. 16K).
The MelanoDerm™ Skin Model provided by MatTek Corporation (Ashland, MA) will be used in this study. The MelanoDerm™ tissue consists of normal, human-derived epidermal keratinocytes (NHEKs) and melanocytes (NHMs) which have been cultured to form a multilayered, highly differentiated model of the human epidermis. The NHMs within co-cultures undergo spontaneous melanogenesis leading to tissues of varying levels of pigmentation. The cultures are grown on cell culture inserts at the air-liquid interface, allowing for topical application of skin modulators. […]
At the end of the 7-day trial, the MelanoDerm™ tissues dosed with the negative or positive control, and with each test article will be photographed using a digital camera to aid in the visual assessment of the degree of pigmentation of the tissues at the end of the assay (Day 7). […] Then, the viability of the tissues will be determined by MTT reduction as indicated below.

The target of data set [8] is T1, arylhydrocarbon receptor (AhR) (Homo sapiens, UniProt P35869).
T1 sequence (P35869 11-848): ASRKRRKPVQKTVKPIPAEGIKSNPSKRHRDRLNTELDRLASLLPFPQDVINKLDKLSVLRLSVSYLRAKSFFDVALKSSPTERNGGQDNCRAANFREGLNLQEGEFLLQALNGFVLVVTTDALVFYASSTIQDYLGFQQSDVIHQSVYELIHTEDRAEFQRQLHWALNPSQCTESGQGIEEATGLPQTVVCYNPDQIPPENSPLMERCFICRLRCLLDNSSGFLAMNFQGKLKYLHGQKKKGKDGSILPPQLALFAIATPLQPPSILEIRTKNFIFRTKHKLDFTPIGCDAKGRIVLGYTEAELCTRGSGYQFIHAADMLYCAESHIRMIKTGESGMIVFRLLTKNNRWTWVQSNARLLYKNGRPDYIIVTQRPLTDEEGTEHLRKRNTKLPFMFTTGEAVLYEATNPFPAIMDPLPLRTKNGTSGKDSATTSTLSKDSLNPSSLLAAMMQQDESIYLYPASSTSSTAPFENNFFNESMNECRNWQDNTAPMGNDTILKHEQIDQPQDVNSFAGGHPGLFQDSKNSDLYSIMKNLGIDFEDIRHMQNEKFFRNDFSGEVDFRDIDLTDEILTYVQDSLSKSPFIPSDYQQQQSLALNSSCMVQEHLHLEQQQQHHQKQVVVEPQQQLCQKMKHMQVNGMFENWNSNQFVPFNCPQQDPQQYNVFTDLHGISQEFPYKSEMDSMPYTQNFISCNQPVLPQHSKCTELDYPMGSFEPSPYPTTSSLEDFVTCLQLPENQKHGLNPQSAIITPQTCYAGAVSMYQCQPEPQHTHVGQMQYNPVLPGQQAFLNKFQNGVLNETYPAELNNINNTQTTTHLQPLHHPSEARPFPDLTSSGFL
The conditions noted are these: Wille et al., 2001; cited from earlier work.

In data set [9] the test system is primary human melanocytes. To be noted: Krämer, et al., 2005; cited from earlier work.
The test system of data set [10] is MeWo cells. Nature of the data set: Lactate dehydrogenase (LDH) release assay. The conditions noted are these: after 72-hour incubation.
Description: (§16) The LDH assay quantitatively measures lactate dehydrogenase (“LDH”) released into the media from damaged cells as a biomarker for cytotoxicity and cytolysis.
(§17) CytoTox-ONE™ Homogenous Membrane Integrity Assay was purchased from Promega.
(§18) For the LDH release assay, plates were removed from the incubator and equilibrated at room temperature for 15 minutes. Plates were then centrifuged at 1,000 RPM for 1 minute. 20 μL of cell culture medium was transferred into a new 384-well black solid plate. Then, 20 μL of CytoTOX-ONE™was added into each well and incubated at room temperature for 10 minutes. Afterward, 10 μL of stop solution were added to each well, and the plates were agitated at 500 rpm for 1 minute. Plates were read using an excitation wavelength of 560 nm and an emission wavelength of 590 nm on EnSpire. The relative activity was calculated according to the following formula: Relative Activity (%)=100%×(Lumsample−Lumbkg)/(Lumvehicle−Lumbkg).
Data set [11] deals with WM115 cells. Nature of the data set: Lactate dehydrogenase (LDH) release assay. The conditions noted are these: after 72-hour incubation.
Description: as §16, §17, §18
The test system of data set [12] is MeWo cells. Kind of data set: Preliminary annexin V assay. Type of data set: cell-based. The conditions noted are these: 6-hour treatment, preliminary screen. The text has this:
(§9) MeWo (ATCC® HTB-65™) and WM115 (ATCC® CRL-1675) cells were purchased from ATCC (Manassas, VA) and maintained in the following: for MeWo: DMEM supplemented with 10% FBS; for WM115: RPMI 1640 supplemented with 10% FBS (10% FBS, 1% stabilized antibiotic anti-mycotic solution).
(§10) In the […] stages of apoptosis, phosphatidylserine (“PS”) is translocated from the inner to the outer leaflet of the cell membrane, exposing PS to the extracellular environment, where it can be detected. Highly fluorescent annexin V conjugates provide quick and reliable detection methods for studying the externalization of PS.
(§11) During the first set of studies, both MeWo and WM115 cells were treated with test compounds at 10 doses starting from 100 μM with 3-fold dilution. Staurosporine was used as positive control. After 6-hour treatment, cell apoptosis was assessed using an annexin V assay. The test compounds evaluated were CV-8684, CV-8685, CV-8686, CV-8687, and CV-8688.
(§12) For cell seeding, cells were harvested and the cell number was determined using Countess® cell counter. Cells were then diluted with culture medium to the desired density. 40 μL of cell suspension per well was added to the required number of wells in a 384-well plate (Corning 3712—clear bottom plate). The final cell density was 6,000 cells/well. After plating, the plates were incubated at 37° C. and 5% CO2 overnight.
(§13) For preparation of compound source plate, each test compound was dissolved in DMSO to 10 mM stock. 3-fold serial dilution was performed using an EVO200™ liquid handler (TECAN) to generate ten concentrations of test compound. 0.1% DMSO was employed as vehicle (negative) control. The compound source plate was then spun at room temperature at 1,000 RPM for 1 minute and agitated using a plate shaker for 2 minutes.
(§14) For compound treatment, 40 nL of compound were transferred from the compound source plate to the 384-well culture plate using liquid handler Echo550 (LabCyte Inc.). After 6-hour incubation, the plates were removed from the incubator for detection.
(§15) For the preliminary annexin V assay, the plates were removed from the incubator and allowed to equilibrate at room temperature for 15 minutes. Culture media was then removed. 20 μL of pre-mixed annexin V-FITC and Hoechst33342 dye working solution were added to each well. The cells were then incubated at room temperature for 20 minutes. The plates were sealed and centrifuged for 1 minute at 1,000 RPM to remove bubbles. Afterward, the plate was read using an Acumen eX3 plate reader.

The test system of data set [13] is WM115 cells. Kind of data set: Preliminary annexin V assay. Type of data set: cell-based. To be noted: 6-hour treatment, preliminary screen.
Description: as §9, §10, §11, §12, §13, §14, §15

A short description of data set [14]: CellTiter-Glo cell viability assay. Type of data set: cell-based. To be noted: human, after 24-hour treatment, read-out: inhibition of cell viability. The procedure:
as §7, §8

In the case of `O=Cc1c(Cc2c[nH]c3ccccc23)[nH]c2ccccc12` [CV-8684, 2-(1H-indol-3-ylmethyl)-1H-indole-3-carbaldehyde], the cell morphology result in data set [1] and in [2] was “significantly affected” each time. For the same compound, the “apoptosis induction (annexin V)” value in data set [3] and in data set [4] was “induced apoptosis at the highest concentration tested” in each case. For the same compound, the “inhibition of cell viability” value in data set [5] and in [6] was “dose-dependent inhibition of cell viability” in each case. The “pigmentation of MelanoDerm tissues” value in data set [7] was “reduced pigmentation”. In addition, the AhR agonist activity result in data set [8] was “known agonist”. For the same compound, the apoptosis induction entry in [9] was “induces apoptosis”. Besides, the LDH release entry in data set [10] and in [11] was “did not induce significant release” each time.
Turning to `CC(c1[nH]c2ccccc2c1C=O)c1c[nH]c2ccccc12` (centres unmarked) [CV-8688], the cell morphology entry in data set [1] and in [2] was “significantly affected” in each case. Besides, the “annexin V staining” value in data set [12] is recorded as “markedly increased”. Moreover, the EC50 in data set [12] (read-out: EC50 of annexin V staining) is 909 nM. Also, the “apoptosis induction (annexin V)” value in data set [3] and in [4] was “showed the induction effect within 6 hours of treatment in a dose-dependent manner” in each case. Besides, the “inhibition of cell viability” value in data set [5] and in [6] was “inhibited viability of both cell types in a dose-dependent manner” each time. For the same compound, the “pigmentation of MelanoDerm tissues” value in [7] is reported as “reduced pigmentation”.
Regarding `CN[C@@H]1C[C@H]2O[C@@](C)([C@@H]1OC)n1c3ccccc3c3c4c(c5c6ccccc6n2c5c31)C(=O)NC4` [Staurosporine, reference compound], the cell morphology result in data set [1] and in data set [2] was “significantly affected” throughout. For the same compound, the “annexin V staining” value in data set [12] and in [13] was “greatly increased” throughout. Moreover, the cytotoxicity at 24 h in data set [14] (MeWo) and in [14] (WM115) was 100% throughout.

A word on the EC50: it is the concentration at which the effect is half-maximal.
